Results taken from patent US20130014428A1, “METHODS OF MONITORING AND CONTROLLING THE WALNUT TWIG BEETLE, PITYOPHTHORUS JUGLANDIS” (The United States of America as Represented by the …, priority 2011, published 2013).

Key:
[1] = system: walnut twig beetle (WTB), Pityophthorus juglandis; experiment: Example 1 Field Test 2: flight response to X with and without racemic conophthorin; format: in vivo; conditions: yellow sticky card traps, Davis CA
Procedure: Field Bioassays of Semiochemicals. To test the attractiveness of the various compounds of interest, some of the commercially available materials listed above were poured into 15 ml capped polyethylene bottles (Product #s A1-1050/002, A1-1055/002; Contech Enterprises Inc., Delta, British Columbia, Canada) and attached to yellow sticky card traps (Trécé, Adair, OK). In addition, synthesized (+) and (−) enantiomers of trans-conophthorin were tested in 400 μl polyethylene Eppendorf microcentrifuge tubes. Four field studies were conducted (Table 2) that tested the flight responses to: 3-methyl-2-buten-l-ol and related isomers (Field Test 1); 3-methyl-2-buten-l-ol with and without racemic trans-conophthorin (Field Test 2); 3-methyl-2-buten-l-ol with and without the purified enantiomers of trans-conophthorin (Field Test 3); and 3-methyl-2-buten-l-ol with and without racemic chalcogran (Field Test 4).
Statistical Analysis. Field Tests 1-4 were each analyzed for treatment effect by using Friedman's non-parametric analysis of variance. (See Zar, J. H. 2010. Biostatistical Analysis, 5th Ed. Pearson Prentice Hall, New Jersey). Males and females were subjected to separate analyses. All treatments within experiments yielding a significant treatment effect were compared by using an a posteriori Nemenyi test (Zar 2010) with experimentwise α=0.05. Sex ratios of responding WTB were determined using Cochran's method for unbiased sampling (See Cochran, W. G. 1977. Sampling Techniques, 3rd ed. John Wiley, New York), with 95% confidence intervals calculated by using the Clopper-Pearson method. (See Zar, J. H. 2010. Biostatistical Analysis, 5th Ed. Pearson Prentice Hall, New Jersey).

WTB [2] = experiment: Example 2 Field Test 2: X in combination with DMNT, vittatol, rose oxides; format: in vivo, Pityophthorus juglandis; design: trap catches, male WTB / trap catches, female WTB: dose or concentration left out as unconfirmed; conditions: 4-unit Lindgren funnel traps
Procedure: At the same time and location, the flight response of WTB to 3-methyl-2-buten-1-ol ([…], Contech) was tested in combination with each of the following compounds: DMNT [4,8-dimethyl-1,3(E),7-nonatriene], vittatol [(3R,6R)-3-hydroxy-2,2,6-trimethyltetrahydropyran], (−)- and (+)-rose oxide [tetrahydro-4-methyl-2-(2-methylpropenyl)-2H-pyran] (Table 3, Field Test 2). DMNT and vittatol were synthesized and provided by Prof. Wittko Francke, University of Hamburg, Institute of Organic Chemistry; whereas (−)-rose oxide (>99% chemical purity, product #83917-1 ML, Fluka, Milwaukee, Wis.) and (+)-rose oxide (>99% chemical purity, product #83915-1 ML, Fluka) were purchased. The compounds besides 3-methyl-2-buten-1-ol were released from closed 400 μl Eppendorf microcentrifuge tubes (Evergreen) with loads of approximately 50 μl (DMNT); 20 mg (vittatol, solid at room temperature); and approx. 200 μl each of (−)-and (+)-rose oxide. The six treatments were replicated in three spatial blocks and the treatments were re-randomized among the six trap stations in a block each time the traps were emptied (nearly every day).
Statistical Analyses. Analysis of treatment effects for the pouch vs. bottle experiment was done by using a sign test. (See Zar, J. H. 2010. Biostatistical Analysis. 5th ed. Pearson Prentice Hall, Englewood Cliffs, N.J.) The other four experiments were analyzed for treatment effect by using Friedman's non-parametric analysis of variance. Id. In all experiments, males and females were analyzed separately. All treatments within experiments yielding a significant treatment effect were compared by using an a posteriori Nemenyi test with experimentwise α=0.05. Id. For all experiments, differences among proportions of female WTB responding to treatments were analyzed by comparing 95% confidence intervals determined with the Clopper-Pearson method. Id.

WTB [3] = experiment: Baited vs unbaited funnel trap pairs in Tennessee and Virginia; format: in vivo, Pityophthorus juglandis; conditions: 15-80 mg/d
Procedure: The efficacy of the WTB trap bait as a detection tool was tested across the United States for a range of populations of the beetle that might be biologically heterogeneous and may occur at various densities in the landscape. The information learned from these trials was instrumental in preparing the national trapping guidelines for walnut twig beetle. […] For each state, trapping was performed in areas of known WTB infestation as well as nearby localities where WTB had not been previously detected. […]
To compare the effectiveness of the bait in the eastern range of WTB, pairs of baited and unbaited traps were located in Tennessee (3 pairs, 10 repeated measures for each pair) and Virginia (4 pairs, 12 repeated measures for each pair). […] Trap catch data were analyzed with a sign test. […]

[4] = about one month late spring, N=16

## CC(C)=CCO [X, 3-methyl-2-buten-1-ol]
[1]
  proportion of females responding: 0.65
[1]; [4]
  trap catches, female WTB: 459
  trap catches, male WTB: 250
WTB [2]
  proportion of females responding: 0.70
WTB [2]; N=42
  trap catches, female WTB: 100
  trap catches, male WTB: 43
WTB [3]; Tennessee, 4-unit funnel traps, N=30
  WTB detected at baited traps: 19.1 WTB/trap/week
WTB [3]; Virginia, 12-unit funnel traps, N=48
  WTB captured in baited traps: 42.3 WTB/trap/week
